We go through three molecules from ChEMBL document CHEMBL5120810, “Toporosides A and B, Cyclopentenyl-Containing ω-Glycosylated Fatty Acid Amides, and Toporosides C and D from the Northwestern Pacific Marine Sponge Stelodoryx toporoki” (2022).

The subject of this assay is H9c2. Put plainly: Cardioprotective activity against TNF-alpha induced rat H9c2 cells assessed as increase in cell viability at 2.5 uM pretreated with TNF-alpha for 1 hr followed by compound addition measured after 48 hrs by MTT assay relative to control. Type of assay: functional. For orientation: Formazan colour is commonly taken as a measure of viable cells.
For `CO[C@@H](CC/C=C\CCCCC(=O)CCCCC(=O)CCCCCCCCCCO[C@@H]1O[C@H](C(=O)O)[C@@H](O)[C@H](O)[C@H]1O)C(=O)NCCc1ccc(O)c(O)c1`, the Activity was 18%.
As for `CO[C@@H](CC/C=C\CCCCC(=O)C1=C(CC/C=C\CCCCCCCCO[C@@H]2O[C@H](C(=O)O)[C@@H](O)[C@H](O)[C@H]2O)CCC1)C(=O)NCCc1ccc(O)c(O)c1`, the Activity worked out at 23%.
In the case of `CO[C@@H](CC/C=C\CCCCC(=O)CCCCC(=O)CC/C=C\CCCCCCCCO[C@@H]1O[C@H](C(=O)O)[C@@H](O)[C@H](O)[C@H]1O)C(=O)NCCc1ccc(O)c(O)c1` it was 25%.
